Data from PubChem BioAssay AID1963850 (Molecular Pharmacology Branch, DTP, NCI, 2024).

System: 192522-019-R-J2-PDC complex tumor spheroid viability
Assay: Anticancer human tumor 192522-019-R-J2-PDC patient-derived colon adenocarcinoma cell line growth inhibition [POLQ]
Conditions: for IC50: curve of first compound; for viability, T/C: stronger effect = lower value
Summary of the method: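 Three-cell-type spheroids modelling solid tumor plus stroma served as the readout system; POL inhibitors were tested individually and in combination, concentration ranges set by clinical Cmax where known.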

[1] = second compound 0.0316 µM, first compound 0.0316 µM
[2] = second compound 0.0316 µM, first compound 0.1 µM
[3] = second compound 0.0316 µM, first compound 0.316 µM
[4] = second compound 0.0316 µM, first compound 1 µM
[5] = second compound 0.0316 µM, first compound 3.16 µM
[6] = second compound 0.0316 µM, first compound 10 µM
[7] = second compound 0.1 µM, first compound 0.0316 µM
[8] = second compound 0.1 µM, first compound 0.1 µM
[9] = second compound 0.1 µM, first compound 0.316 µM
[10] = second compound 0.1 µM, first compound 1 µM
[11] = second compound 0.1 µM, first compound 3.16 µM
[12] = second compound 0.1 µM, first compound 10 µM
[13] = second compound 0.316 µM, first compound 0.0316 µM
[14] = second compound 0.316 µM, first compound 0.1 µM
[15] = second compound 0.316 µM, first compound 0.316 µM
[16] = second compound 0.316 µM, first compound 1 µM
[17] = second compound 0.316 µM, first compound 3.16 µM
[18] = second compound 0.316 µM, first compound 10 µM
[19] = second compound 1 µM, first compound 0.0316 µM
[20] = second compound 1 µM, first compound 0.1 µM
[21] = second compound 1 µM, first compound 0.316 µM
[22] = second compound 1 µM, first compound 1 µM
[23] = second compound 1 µM, first compound 3.16 µM
[24] = second compound 1 µM, first compound 10 µM
[25] = second compound 3.16 µM, first compound 0.0316 µM
[26] = second compound 3.16 µM, first compound 0.1 µM
[27] = second compound 3.16 µM, first compound 0.316 µM
[28] = second compound 3.16 µM, first compound 1 µM
[29] = second compound 3.16 µM, first compound 3.16 µM
[30] = second compound 3.16 µM, first compound 10 µM
[31] = second compound 10 µM, first compound 0.0316 µM
[32] = second compound 10 µM, first compound 0.1 µM
[33] = second compound 10 µM, first compound 0.316 µM
[34] = second compound 10 µM, first compound 1 µM
[35] = second compound 10 µM, first compound 3.16 µM
[36] = second compound 10 µM, first compound 10 µM
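Further: spheroids exposed to drugs for seven days before reading.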
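Wherever viability, T/C is given: 100% = DMSO vehicle control viability in luminescence.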

## CC1COCCN1c1cc(C2(S(C)(=N)=O)CC2)nc(-c2ccnc3[nH]ccc23)n1 (centres undefined) + Nc1ccc(C#CCN(C(=O)Cc2ncc(C(F)(F)F)cc2C(F)(F)F)c2ccc(F)cc2)nn1
Second compound 0.0316 µM
  IC50: 5.87 µM
Second compound 0.1 µM
  IC50: 6.81 µM
Second compound 0.316 µM
  IC50: 6 µM
Second compound 1 µM
  IC50: 7 µM
Second compound 3.16 µM
  IC50: 6.4 µM
Second compound 10 µM
  IC50: 7.13 µM
[1]
  viability, T/C: 101%
[2]
  viability, T/C: 90.6%
[3]
  viability, T/C: 102%
[4]
  viability, T/C: 93.7%
[5]
  viability, T/C: 68%
[6]
  viability, T/C: 34.5%
[7]
  viability, T/C: 106%
[8]
  viability, T/C: 98.6%
[9]
  viability, T/C: 102%
[10]
  viability, T/C: 100%
[11]
  viability, T/C: 69.6%
[12]
  viability, T/C: 40.1%
[13]
  viability, T/C: 114%
[14]
  viability, T/C: 100%
[15]
  viability, T/C: 99.4%
[16]
  viability, T/C: 90%
[17]
  viability, T/C: 67.9%
[18]
  viability, T/C: 35.5%
[19]
  viability, T/C: 103%
[20]
  viability, T/C: 108%
[21]
  viability, T/C: 100%
[22]
  viability, T/C: 96%
[23]
  viability, T/C: 77%
[24]
  viability, T/C: 37.8%
[25]
  viability, T/C: 99.2%
[26]
  viability, T/C: 100%
[27]
  viability, T/C: 101%
[28]
  viability, T/C: 100%
[29]
  viability, T/C: 68%
[30]
  viability, T/C: 38.5%
[31]
  viability, T/C: 102%
[32]
  viability, T/C: 101%
[33]
  viability, T/C: 102%
[34]
  viability, T/C: 105%
[35]
  viability, T/C: 72.7%
[36]
  viability, T/C: 40.5%

## CCCS(=O)(=O)Nc1ccc(F)c(C(=O)c2c[nH]c3ncc(-c4ccc(Cl)cc4)cc23)c1F + Cc1cccc(N(C)C(=O)C2C(O)CCN2c2nc(C)cc(C(F)(F)F)c2C#N)c1
Second compound 0.0316 µM
  IC50: > 10 µM
Second compound 0.1 µM
  IC50: > 10 µM
Second compound 0.316 µM
  IC50: > 10 µM
Second compound 1 µM
  IC50: > 10 µM
Second compound 3.16 µM
  IC50: > 10 µM
Second compound 10 µM
  IC50: > 10 µM
[1]
  viability, T/C: 101%
[2]
  viability, T/C: 110%
[3]
  viability, T/C: 96.8%
[4]
  viability, T/C: 119%
[5]
  viability, T/C: 109%
[6]
  viability, T/C: 77.7%
[7]
  viability, T/C: 105%
[8]
  viability, T/C: 102%
[9]
  viability, T/C: 106%
[10]
  viability, T/C: 114%
[11]
  viability, T/C: 101%
[12]
  viability, T/C: 78.7%
[13]
  viability, T/C: 106%
[14]
  viability, T/C: 101%
[15]
  viability, T/C: 97.3%
[16]
  viability, T/C: 97%
[17]
  viability, T/C: 105%
[18]
  viability, T/C: 62.8%
[19]
  viability, T/C: 113%
[20]
  viability, T/C: 118%
[21]
  viability, T/C: 103%
[22]
  viability, T/C: 102%
[23]
  viability, T/C: 120%
[24]
  viability, T/C: 61.5%
[25]
  viability, T/C: 101%
[26]
  viability, T/C: 106%
[27]
  viability, T/C: 105%
[28]
  viability, T/C: 103%
[29]
  viability, T/C: 102%
[30]
  viability, T/C: 73.2%
[31]
  viability, T/C: 110%
[32]
  viability, T/C: 102%
[33]
  viability, T/C: 98.3%
[34]
  viability, T/C: 106%
[35]
  viability, T/C: 124%
[36]
  viability, T/C: 66.2%
